Source: patent publication US20100004234A1, “SPECIFIC KINASE INHIBITORS” (Kosan Biosciences Incorporated, priority 2004, published 2010)
Like-named read-outs stand apart in the source and are kept apart here.

Assays:
[1] = tested on: SKOV3 (ovarian cancer cell line, wild-type B-Raf); assay: Cell proliferation assay; assay type: cell-based; settings: Homo sapiens, SK-OV-3, read-out: Cell Line IC50 SKOV3
Procedure: (§1) In one illustrative method, cells are treated with various concentrations of the inhibitor in 96 well plates, incubated at 37° C./5% CO2 for three days, and analyzed using the Cell Titer Glo kit (Promega).
(§2) COLO829 is a human melanoma cell line. HT29 is a human colon cancer cell line. Both cell lines have a V600E B-Raf mutation. SKOV3 is an ovarian cancer cell line having wild-type B-Raf. EKR2 (extra-cellular signal regulated kinase 2) is a kinase in the Ras/B-Raf MAP kinase cascade pathway.

[2] = tested on: HT29 (Human colon, B-Raf V599E); assay: Cell proliferation assay (Cell Titer Glo); assay type: cell-based
Procedure: as §1, §2

[3] = tested on: COLO829 (Human melanoma, B-Raf V599E); assay: Cell proliferation assay (Cell Titer Glo); assay type: cell-based
Procedure: as §1, §2

FGFR4(h) = FGFR4(h) (Homo sapiens, UniProt P22455); assay: Kinase panel, residual activity; assay type: biochemical; settings: read-out: Percent residual activity
Procedure: (§3) In this panel of 124 kinases, 18 of the 19 kinases identified as having an active site cysteine were inhibited to some extent by hypothemycin at a concentration of 0.2 μM and/or 2 μM.

Met(h) = Met(h) (Homo sapiens, UniProt P08581); assay: Kinase panel, residual activity; assay type: biochemical; settings: read-out: Percent residual activity
Procedure: as §3

ASK1(h) = ASK1(h) (Homo sapiens, UniProt Q99683); assay: Kinase panel, residual activity; assay type: biochemical; settings: read-out: Percent residual activity
Procedure: as §3

JNK3(h) = JNK3(h) (Homo sapiens, UniProt P53779); assay: Kinase panel, residual activity; assay type: biochemical; settings: read-out: Percent residual activity
Procedure: as §3

CDK2/cyclinA(h) = CDK2/cyclinA(h) (Homo sapiens, UniProt P24941); assay: Kinase panel, residual activity; assay type: biochemical; settings: read-out: Percent residual activity
Procedure: as §3

Fms(h) = Fms(h) (Homo sapiens, UniProt P07333); assay: Kinase panel, residual activity; assay type: biochemical; settings: read-out: Percent residual activity
Procedure: as §3

CaMKIV(h) = CaMKIV(h) (Homo sapiens, UniProt Q16566); assay: Kinase panel, residual activity; assay type: biochemical; settings: read-out: Percent residual activity
Procedure: as §3

PDK1(h) = PDK1(h) (Homo sapiens, UniProt O15530); assay: Kinase panel, residual activity; assay type: biochemical; settings: read-out: Percent residual activity
Procedure: as §3

EphB2(h) = EphB2(h) (Homo sapiens, UniProt P29323); assay: Kinase panel, residual activity; assay type: biochemical; settings: read-out: Percent residual activity
Procedure: as §3

FGFR1(h) = FGFR1(h) (Homo sapiens, UniProt P11362); assay: Kinase panel, residual activity; assay type: biochemical; settings: read-out: Percent residual activity
Procedure: as §3

ZIPK(h) = ZIPK(h) (Homo sapiens, UniProt O43293); assay: Kinase panel, residual activity; assay type: biochemical; settings: read-out: Percent residual activity
Procedure: as §3

Fyn(h) = Fyn(h) (Homo sapiens, UniProt P06241); assay: Kinase panel, residual activity; assay type: biochemical; settings: read-out: Percent residual activity
Procedure: as §3

Abl(T315I)(h) = Abl(T315I)(h) (Homo sapiens, UniProt P00519, T315I); assay: Kinase panel, residual activity; assay type: biochemical; settings: read-out: Percent residual activity
Procedure: as §3

[4] = tested on: A549 (NSCLC, B-Raf wild-type); assay: Cell proliferation assay (Cell Titer Glo); assay type: cell-based; settings: Homo sapiens, A549, read-out: Kinase Inhibitor IC50
Procedure: as §1

[5] = tested on: P815 (Mouse mastocytoma, KIT D814Y); assay: Cell proliferation assay (Cell Titer Glo); assay type: cell-based; settings: Mus musculus
Procedure: as §1

[6] = tested on: DU4475 (Human breast, B-Raf V599E); assay: Cell proliferation assay (Cell Titer Glo); assay type: cell-based; settings: Homo sapiens, DU-4475, read-out: Kinase Inhibitor IC50
Procedure: as §1

[7] = tested on: WM266-4 (Human melanoma, B-Raf V599D); assay: Cell proliferation assay (Cell Titer Glo); assay type: cell-based; settings: Homo sapiens, WM 266-4, read-out: Kinase Inhibitor IC50
Procedure: as §1

[8] = tested on: ASZ001 (Basal cell carcinoma); assay: Cell proliferation assay (Cell Titer Glo); assay type: cell-based
Procedure: as §1

[9] = tested on: EOL-1 (Human leukemia FLP1L1-PDGFRA); assay: Cell proliferation assay (Cell Titer Glo); assay type: cell-based; settings: Homo sapiens, EOL1, read-out: Kinase Inhibitor IC50
Procedure: as §1

[10] = tested on: A375 (Human melanoma, B-Raf V599E); assay: Cell proliferation assay (Cell Titer Glo); assay type: cell-based; settings: Homo sapiens, A-375, read-out: Kinase Inhibitor IC50
Procedure: as §1

[11] = tested on: MV4-11 (Human leukemia Flt3-ITD); assay: Cell proliferation assay (Cell Titer Glo); assay type: cell-based; settings: Homo sapiens
Procedure: as §1

p70S6K(h) = assay: Kinase panel, residual activity; assay type: biochemical, human; settings: 0.2 μM
Procedure: as §3

ERK2 = ERK2 (UniProt P28482); assay type: biochemical; set-up: "the target Cys 172 residue; settings: Table 7
Procedure: In either case, the time dependent inactivation can be dampened by the presence of a competing substrate, in this case ATP.
For covalent inhibitors, plots of log (activity) versus time provide apparent first-order rate constants (kobsd) of enzyme activity loss. If these assays are performed at varying concentrations of inhibitor, a series of first-order plots is obtained and kobsd obtained at each inhibitor concentration. […] Such molecules may be competitive inhibitors but should not show time-dependent inactivation.
Inhibition progress curve analysis was performed using continuous, colorimetric, or fluorimetric assays. All experiments were done at 1 mM ATP, with the exception of KDR (at 5 mM ATP).
MEK1 assays were performed using pre-incubation experiments with radioactive [^32P]ATP and filter binding of product. All other kinases were analyzed using progress curve analysis from a continuous spectrophotometric assay.

Chain of Fms(h) (P07333 20-972): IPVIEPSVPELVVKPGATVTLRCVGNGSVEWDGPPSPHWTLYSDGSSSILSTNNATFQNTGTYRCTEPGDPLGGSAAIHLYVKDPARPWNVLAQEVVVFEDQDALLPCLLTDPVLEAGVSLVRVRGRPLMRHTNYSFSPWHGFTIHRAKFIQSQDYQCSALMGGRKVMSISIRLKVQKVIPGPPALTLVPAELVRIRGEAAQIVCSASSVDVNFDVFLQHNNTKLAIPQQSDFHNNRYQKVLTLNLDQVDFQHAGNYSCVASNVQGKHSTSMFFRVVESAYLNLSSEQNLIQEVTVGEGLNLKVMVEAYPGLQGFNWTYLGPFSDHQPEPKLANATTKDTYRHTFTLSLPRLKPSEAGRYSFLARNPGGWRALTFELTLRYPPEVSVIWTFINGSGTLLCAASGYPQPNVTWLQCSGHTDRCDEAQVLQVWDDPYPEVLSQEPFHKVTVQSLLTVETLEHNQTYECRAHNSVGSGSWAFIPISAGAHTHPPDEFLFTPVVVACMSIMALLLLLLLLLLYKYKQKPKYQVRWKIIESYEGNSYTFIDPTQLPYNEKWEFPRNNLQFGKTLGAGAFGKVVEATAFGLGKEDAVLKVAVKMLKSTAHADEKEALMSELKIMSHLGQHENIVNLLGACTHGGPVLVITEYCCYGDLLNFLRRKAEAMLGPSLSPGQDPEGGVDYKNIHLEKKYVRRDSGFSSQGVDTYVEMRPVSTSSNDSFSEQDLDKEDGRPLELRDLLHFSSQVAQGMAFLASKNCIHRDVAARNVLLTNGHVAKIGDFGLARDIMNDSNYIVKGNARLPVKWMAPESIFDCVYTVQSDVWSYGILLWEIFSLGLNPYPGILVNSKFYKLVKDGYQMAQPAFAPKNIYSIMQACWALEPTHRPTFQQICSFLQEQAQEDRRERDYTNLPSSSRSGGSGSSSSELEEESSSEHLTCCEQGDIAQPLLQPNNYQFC
Chain of EphB2(h) (P29323 19-1055): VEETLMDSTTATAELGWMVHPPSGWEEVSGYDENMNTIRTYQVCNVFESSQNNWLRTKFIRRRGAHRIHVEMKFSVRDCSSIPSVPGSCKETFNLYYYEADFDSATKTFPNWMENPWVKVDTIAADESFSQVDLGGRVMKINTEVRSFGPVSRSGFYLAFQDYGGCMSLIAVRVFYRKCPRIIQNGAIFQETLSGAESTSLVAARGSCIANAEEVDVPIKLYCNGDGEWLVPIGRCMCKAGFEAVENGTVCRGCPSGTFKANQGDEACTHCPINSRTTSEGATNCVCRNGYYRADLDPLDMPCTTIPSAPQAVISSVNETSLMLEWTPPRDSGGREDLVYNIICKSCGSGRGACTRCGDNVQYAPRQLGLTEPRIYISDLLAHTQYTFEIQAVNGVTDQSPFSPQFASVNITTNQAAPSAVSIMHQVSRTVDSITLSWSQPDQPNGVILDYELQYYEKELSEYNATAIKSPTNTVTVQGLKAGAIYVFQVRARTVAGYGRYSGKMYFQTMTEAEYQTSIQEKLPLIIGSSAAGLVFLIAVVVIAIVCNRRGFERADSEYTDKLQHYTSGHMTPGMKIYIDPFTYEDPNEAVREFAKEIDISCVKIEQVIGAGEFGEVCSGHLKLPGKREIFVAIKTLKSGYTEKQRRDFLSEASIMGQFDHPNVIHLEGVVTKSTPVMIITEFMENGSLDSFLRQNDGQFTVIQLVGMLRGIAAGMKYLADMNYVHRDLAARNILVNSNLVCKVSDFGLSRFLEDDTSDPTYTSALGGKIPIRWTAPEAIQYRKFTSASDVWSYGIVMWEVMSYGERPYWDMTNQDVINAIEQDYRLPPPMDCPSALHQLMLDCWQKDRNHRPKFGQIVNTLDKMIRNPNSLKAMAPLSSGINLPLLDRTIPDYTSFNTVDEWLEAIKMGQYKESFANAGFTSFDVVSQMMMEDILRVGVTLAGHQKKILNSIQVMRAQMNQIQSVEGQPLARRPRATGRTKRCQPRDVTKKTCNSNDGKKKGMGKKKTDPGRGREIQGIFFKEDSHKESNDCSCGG
Chain of ZIPK(h) (O43293 whole entry): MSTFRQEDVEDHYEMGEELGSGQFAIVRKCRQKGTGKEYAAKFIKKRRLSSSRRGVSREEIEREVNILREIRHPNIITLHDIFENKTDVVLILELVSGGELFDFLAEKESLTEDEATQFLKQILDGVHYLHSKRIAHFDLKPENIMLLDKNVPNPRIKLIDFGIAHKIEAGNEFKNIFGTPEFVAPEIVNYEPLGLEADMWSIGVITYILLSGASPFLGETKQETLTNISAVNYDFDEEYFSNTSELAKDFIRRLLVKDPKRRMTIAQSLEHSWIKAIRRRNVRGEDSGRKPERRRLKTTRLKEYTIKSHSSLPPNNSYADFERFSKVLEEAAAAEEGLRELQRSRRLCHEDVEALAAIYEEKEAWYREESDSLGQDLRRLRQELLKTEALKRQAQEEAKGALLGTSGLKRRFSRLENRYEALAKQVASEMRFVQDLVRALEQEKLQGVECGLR
Chain of Met(h) (P08581 25-1390): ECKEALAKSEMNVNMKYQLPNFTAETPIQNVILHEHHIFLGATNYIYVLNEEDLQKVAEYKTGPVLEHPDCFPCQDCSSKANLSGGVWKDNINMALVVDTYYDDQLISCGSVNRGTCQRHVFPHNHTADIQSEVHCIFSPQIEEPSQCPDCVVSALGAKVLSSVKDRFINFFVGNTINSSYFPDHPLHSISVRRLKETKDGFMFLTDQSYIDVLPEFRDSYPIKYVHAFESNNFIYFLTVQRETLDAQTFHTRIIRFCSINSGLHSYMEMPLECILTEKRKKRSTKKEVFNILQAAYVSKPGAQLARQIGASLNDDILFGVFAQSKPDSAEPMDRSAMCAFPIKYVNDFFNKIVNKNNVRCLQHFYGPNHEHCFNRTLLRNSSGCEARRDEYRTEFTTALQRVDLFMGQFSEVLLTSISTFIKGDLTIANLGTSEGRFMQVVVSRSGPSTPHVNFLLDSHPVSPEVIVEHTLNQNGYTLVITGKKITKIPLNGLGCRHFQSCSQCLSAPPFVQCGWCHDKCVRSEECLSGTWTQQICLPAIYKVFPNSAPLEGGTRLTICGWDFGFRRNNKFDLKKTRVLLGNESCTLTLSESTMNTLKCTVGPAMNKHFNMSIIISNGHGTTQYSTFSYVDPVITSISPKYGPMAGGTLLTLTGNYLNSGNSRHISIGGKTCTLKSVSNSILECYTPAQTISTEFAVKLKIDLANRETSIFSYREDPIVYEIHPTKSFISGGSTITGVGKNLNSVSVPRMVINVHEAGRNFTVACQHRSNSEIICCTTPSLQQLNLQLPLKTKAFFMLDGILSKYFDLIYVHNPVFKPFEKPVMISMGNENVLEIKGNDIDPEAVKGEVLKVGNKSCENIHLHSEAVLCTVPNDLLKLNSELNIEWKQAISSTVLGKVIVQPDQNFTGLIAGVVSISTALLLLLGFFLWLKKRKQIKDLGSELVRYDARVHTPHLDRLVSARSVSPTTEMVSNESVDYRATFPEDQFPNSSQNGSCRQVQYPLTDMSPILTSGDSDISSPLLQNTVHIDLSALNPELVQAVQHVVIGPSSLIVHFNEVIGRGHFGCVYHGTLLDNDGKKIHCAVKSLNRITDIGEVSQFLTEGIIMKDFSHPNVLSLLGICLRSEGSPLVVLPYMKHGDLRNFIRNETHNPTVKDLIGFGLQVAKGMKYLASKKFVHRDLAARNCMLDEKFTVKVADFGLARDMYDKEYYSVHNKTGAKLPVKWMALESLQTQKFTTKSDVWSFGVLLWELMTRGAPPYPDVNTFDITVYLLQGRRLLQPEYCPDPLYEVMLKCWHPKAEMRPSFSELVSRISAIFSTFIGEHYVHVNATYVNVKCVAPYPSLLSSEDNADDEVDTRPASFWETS
Chain of JNK3(h) (P53779 whole entry): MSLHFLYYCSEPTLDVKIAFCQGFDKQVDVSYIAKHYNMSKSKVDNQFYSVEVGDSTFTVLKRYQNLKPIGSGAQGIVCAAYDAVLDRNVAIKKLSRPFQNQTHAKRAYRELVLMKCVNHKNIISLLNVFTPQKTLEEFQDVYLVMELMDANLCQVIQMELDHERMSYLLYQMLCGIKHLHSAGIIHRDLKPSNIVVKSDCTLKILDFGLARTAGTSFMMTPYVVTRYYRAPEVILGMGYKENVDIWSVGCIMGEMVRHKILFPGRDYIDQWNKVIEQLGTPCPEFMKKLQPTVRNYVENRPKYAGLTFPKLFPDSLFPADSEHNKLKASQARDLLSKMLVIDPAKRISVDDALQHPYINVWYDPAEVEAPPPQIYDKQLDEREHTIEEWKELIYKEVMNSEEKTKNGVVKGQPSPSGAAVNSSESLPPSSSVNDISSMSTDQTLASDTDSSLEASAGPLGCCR
Chain of PDK1(h) (O15530 whole entry): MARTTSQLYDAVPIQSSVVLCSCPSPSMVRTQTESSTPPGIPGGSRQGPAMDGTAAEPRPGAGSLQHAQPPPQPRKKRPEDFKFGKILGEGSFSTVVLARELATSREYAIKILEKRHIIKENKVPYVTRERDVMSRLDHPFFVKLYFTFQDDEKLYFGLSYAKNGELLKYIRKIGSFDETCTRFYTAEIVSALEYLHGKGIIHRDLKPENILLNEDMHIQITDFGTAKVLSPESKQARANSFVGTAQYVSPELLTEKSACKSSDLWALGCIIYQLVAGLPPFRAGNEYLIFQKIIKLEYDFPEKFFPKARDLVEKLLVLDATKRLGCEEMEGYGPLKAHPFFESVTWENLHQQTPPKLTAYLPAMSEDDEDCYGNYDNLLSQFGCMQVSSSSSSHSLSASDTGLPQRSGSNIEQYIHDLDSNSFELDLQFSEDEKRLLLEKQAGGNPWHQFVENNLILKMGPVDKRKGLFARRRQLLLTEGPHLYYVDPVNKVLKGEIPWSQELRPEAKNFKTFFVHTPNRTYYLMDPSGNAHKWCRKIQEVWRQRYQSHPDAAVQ

COc1cc(O)c2c(c1)[C@H]1O[C@@H]1C[C@H](O)[C@H](O)C(=O)/C=C\C[C@H](C)OC2=O [Hypothemycin, hypothemycin]
IC50 [1]: ~4000 nM | IC50 ([2]; HT-29, Table 7, HT29 human colon cancer, V600E B-Raf, read-out: Cell Line IC50 HT29): 240 ± 170 nM | IC50 ([2]; Homo sapiens, HT-29, read-out: Kinase Inhibitor IC50): 100 nM | IC50 ([3]; COLO-829, Table 7, COLO829 human melanoma, V600E B-Raf, read-out: Cell Line IC50 COLO829): 73 ± 17 nM | GI50 ([3]; Homo sapiens, COLO-829): 50 nM | IC50 ([3]; Homo sapiens, COLO-829, read-out: Kinase Inhibitor IC50): 89 nM | remaining activity at 0.2 µM (FGFR4(h)): 87% | remaining activity at 0.2 µM (Met(h)): 96% | remaining activity at 0.2 µM (ASK1(h)): 100% | remaining activity at 0.2 µM (JNK3(h)): 76% | remaining activity at 0.2 µM (CDK2/cyclinA(h); 0.2 μM): 634% | remaining activity at 2 µM (CDK2/cyclinA(h); 2.0 μM): 106% | remaining activity at 0.2 µM (Fms(h); 0.2 μM): 91% | remaining activity at 2 µM (Fms(h); 2.0 μM): 90% | remaining activity at 0.2 µM (CaMKIV(h)): 102% | remaining activity at 0.2 µM (PDK1(h)): 93% | remaining activity at 0.2 µM (EphB2(h)): 118% | remaining activity at 0.2 µM (FGFR1(h)): 99% | remaining activity at 0.2 µM (ZIPK(h)): 96% | remaining activity at 0.2 µM (Fyn(h)): 87% | remaining activity at 0.2 µM (Abl(T315I)(h)): 90% | IC50 [4]: 6000 nM | GI50 ([5]; P815): 310 nM | IC50 ([5]; P815, read-out: Kinase Inhibitor IC50): 310 nM | IC50 [6]: 18 nM | IC50 [7]: 40 nM | IC50 ([8]; ASZ001 (Basal cell carcinoma), read-out: Kinase Inhibitor IC50): 100 nM | IC50 ([8]; BCC cell line ASZ001 in culture, read-out: IC50): ~100 nM | IC50 [9]: 0.41 nM | IC50 [10]: 180 nM | GI50 ([11]; MV4-11): 6 nM | IC50 ([11]; MV4-11, read-out: Kinase Inhibitor IC50): 5.5 nM | Percent residual activity (p70S6K(h)): 94% | ERK2 Inhibition kinact. (ERK2): 5 ± 2 × 10^−3 sec^−1 | Ki (ERK2; read-out: ERK2 Inhibition Ki): 1900 ± 1100 nM
